From article PMC7216583 (Parasites & Vectors, 2020)
Structures can show the parent of a compound that is named as a salt. Where two headings read alike, the source gives them in different places.

What was measured:
[1] = tested on: Toxoplasma gondii RH-2F tachyzoites; assay: microbe, parasite or virus in culture; conditions: 72 h
[2] = tested on: p110γ; parameters: method as in S-inhibitor; conditions: ref S-inhibitor; cited from earlier work
[3] = tested on: p110α; parameters: method as in S-inhibitor; conditions: ref S-inhibitor; cited from earlier work
[4] = tested on: p110β; parameters: method as in S-inhibitor; conditions: ref S-inhibitor; cited from earlier work
[5] = tested on: p110δ; parameters: method as in S-inhibitor; conditions: ref S-inhibitor; cited from earlier work
[6] = tested on: EGFR; parameters: method as in S-inhibitor; conditions: ref S-inhibitor; cited from earlier work
[7] = tested on: ErbB4; parameters: method as in S-inhibitor; conditions: ref S-inhibitor; cited from earlier work
[8] = tested on: LXRα-GAL4; parameters: method as in S-inhibitor catalog; conditions: vendor brief description; ref S-inhibitor catalog; cited from earlier work
[9] = tested on: LXRα/SRC1; parameters: method as in S-inhibitor catalog; conditions: vendor brief description; ref S-inhibitor catalog; read-out: EC50, LXRα/SRC1 LiSA; cited from earlier work
[10] = tested on: MV522; parameters: method as in S-inhibitor; conditions: ref S-inhibitor; read-out: IC50, MV522 cell line; cited from earlier work
[11] = tested on: MX1; parameters: method as in S-inhibitor; conditions: ref S-inhibitor; read-out: IC50, MX1 cell line; cited from earlier work
[12] = tested on: Colo205; parameters: method as in S-inhibitor; conditions: ref S-inhibitor; read-out: IC50, Colo205 cell line; cited from earlier work
[13] = tested on: P388; parameters: method as in S-inhibitor; conditions: ref S-inhibitor; read-out: IC50, P388 cell line; cited from earlier work
[14] = tested on: SKOV3; parameters: method as in S-inhibitor; conditions: ref S-inhibitor; read-out: IC50, SKOV3 cell line; cited from earlier work
[15] = tested on: ALK2; parameters: method as in S-inhibitor catalog; conditions: vendor brief description; ref S-inhibitor catalog; cited from earlier work
[16] = tested on: ALK3; parameters: method as in S-inhibitor catalog; conditions: vendor brief description; ref S-inhibitor catalog; cited from earlier work
[17] = tested on: HER2/ErbB2; parameters: method as in S-inhibitor; conditions: ref S-inhibitor; cited from earlier work
[18] = tested on: ErbB3; parameters: method as in S-inhibitor; conditions: ref S-inhibitor; cited from earlier work
[19] = tested on: hERG K+ channel; conditions: cited from earlier work
[20] = tested on: Plk1; parameters: method as in S-inhibitor catalog; conditions: vendor brief description; ref S-inhibitor catalog; cited from earlier work
[21] = tested on: p110α; parameters: method as in S-inhibitor catalog; conditions: vendor brief description; ref S-inhibitor catalog; cited from earlier work
[22] = target: HIV-1 gp120 / CD4 receptor; parameters: method as in S-inhibitor catalog; conditions: in virus; vendor brief description; ref S-inhibitor catalog; read-out: EC50, inhibition of binding of HIV-1 gp120 to CD4 receptor; cited from earlier work
[23] = tested on: HL60 cell line; parameters: method as in S-inhibitor catalog; conditions: vendor brief description; ref S-inhibitor catalog; read-out: IC50, inhibition of growth of HL60; cited from earlier work
[24] = tested on: HeLa cell line; parameters: method as in S-inhibitor catalog; conditions: vendor brief description; ref S-inhibitor catalog; read-out: IC50, inhibition of growth of HeLa; cited from earlier work
[25] = tested on: MDA-MB-435 cell line; parameters: method as in S-inhibitor catalog; conditions: vendor brief description; ref S-inhibitor catalog; read-out: IC50, inhibition of growth of MDA-MB-435; cited from earlier work
[26] = tested on: H14 cell line; parameters: method as in S-inhibitor catalog; conditions: vendor brief description; ref S-inhibitor catalog; read-out: IC50, inhibition of growth of H14; cited from earlier work
[27] = tested on: PDE4B; parameters: method as in S-inhibitor catalog; conditions: vendor brief description; ref S-inhibitor catalog; cited from earlier work
[28] = tested on: FGFR1; parameters: method as in S-inhibitor; conditions: ref S-inhibitor; cited from earlier work
[29] = tested on: FGFR3; parameters: method as in S-inhibitor; conditions: ref S-inhibitor; cited from earlier work
[30] = tested on: bFGF; parameters: method as in S-inhibitor catalog; conditions: vendor brief description; ref S-inhibitor catalog; cited from earlier work
[31] = tested on: VEGF-A; parameters: method as in S-inhibitor catalog; conditions: vendor brief description; ref S-inhibitor catalog; cited from earlier work
[32] = tested on: c-Raf; parameters: method as in S-inhibitor; conditions: ref S-inhibitor; cited from earlier work
[33] = tested on: EphB4; parameters: method as in S-inhibitor; conditions: ref S-inhibitor; cited from earlier work
[34] = tested on: Src; parameters: method as in S-inhibitor; conditions: ref S-inhibitor; cited from earlier work
[35] = tested on: Abl; parameters: method as in S-inhibitor; conditions: ref S-inhibitor; read-out: IC50, c-Abl; cited from earlier work
[36] = tested on: VEGFR2; parameters: method as in S-inhibitor; conditions: ref S-inhibitor; cited from earlier work
[37] = tested on: AVP-induced platelet aggregation; parameters: method as in S-inhibitor catalog; conditions: vendor brief description; ref S-inhibitor catalog; read-out: IC50, inhibition of AVP-induced platelet aggregation; cited from earlier work
[38] = tested on: ALK4; parameters: method as in S-inhibitor; conditions: ref S-inhibitor; cited from earlier work
[39] = tested on: ALK5; conditions: read-out: IC50, ALK5; ref S-inhibitor; cited from earlier work
[40] = tested on: c-Kit; parameters: method as in S-inhibitor catalog; conditions: vendor brief description; ref S-inhibitor catalog; cited from earlier work
[41] = tested on: PDGFRβ; parameters: method as in S-inhibitor catalog; conditions: vendor brief description; ref S-inhibitor catalog; cited from earlier work
[42] = tested on: VEGFR2; parameters: method as in S-inhibitor catalog; conditions: vendor brief description; ref S-inhibitor catalog; cited from earlier work
[43] = tested on: VEGFR3; parameters: method as in S-inhibitor catalog; conditions: vendor brief description; ref S-inhibitor catalog; cited from earlier work
[44] = tested on: mTORC2; parameters: method as in S-inhibitor catalog; conditions: vendor brief description; ref S-inhibitor catalog; cited from earlier work
[45] = tested on: mTORC1; parameters: method as in S-inhibitor catalog; conditions: vendor brief description; ref S-inhibitor catalog; cited from earlier work
[46] = tested on: Bcr/Abl; parameters: method as in S-inhibitor catalog; conditions: vendor brief description; ref S-inhibitor catalog; cited from earlier work
[47] = tested on: Akt2; parameters: method as in S-inhibitor catalog; conditions: vendor brief description; ref S-inhibitor catalog; cited from earlier work
[48] = tested on: Syk; parameters: method as in S-inhibitor catalog; conditions: vendor brief description; ref S-inhibitor catalog; cited from earlier work
[49] = tested on: α7 nAChR; parameters: method as in S-inhibitor catalog; conditions: in α7*-expressing SH-EP1 cells; vendor brief description; ref S-inhibitor catalog; read-out: EC50, α7 nAChR positive allosteric modulation; cited from earlier work
[50] = tested on: FAAH; parameters: method as in S-inhibitor catalog; conditions: vendor brief description; ref S-inhibitor catalog; cited from earlier work
[51] = read-out: Parasite inhibition (%) mean, preliminary screen, mean
[52] = read-out: Parasite inhibition (%) mean, preliminary screen of compound library, mean

Cc1ccccc1-n1c(Cn2ncc3c(N)ncnc32)nc2cccc(C)c2c1=O [PIK-293]
inhibition of growth at 5 µM [1, 51]: 1.1%
IC50 [2]: 10000 nM
IC50 [3]: 100000 nM
IC50 [4]: 25000 nM
IC50 [5]: 240 nM

C=CC(=O)Nc1ccc2ncnc(Nc3ccc(OCc4cccc(F)c4)c(Cl)c3)c2c1 [AST-1306]
IC50 [6]: 0.5 nM
inhibition of growth at 5 µM [1, 51]: -33.7%
IC50 [7]: 0.8 nM

O=C(O)Cc1cccc(OCCCN(Cc2cccc(C(F)(F)F)c2Cl)CC(c2ccccc2)c2ccccc2)c1 [GW3965 HCl]
inhibition of growth at 5 µM [1, 52]: -20.1%
EC50 [8]: 190 nM
EC50 [9]: 125 nM

Cc1ccc(C(=O)N(CCCN)[C@@H](c2oc3cc(Cl)ccc3c(=O)c2Cc2ccccc2)C(C)C)cc1 [SB 743921]
inhibition of growth at 5 µM [1, 51]: 0.5%
IC50 [10]: 1.7 nM
IC50 [11]: 0.06 nM
IC50 [12]: 0.07 nM
IC50 [13]: 14.4 nM
IC50 [14]: 0.2 nM

c1ccc2c(-c3cnn4cc(-c5ccc(N6CCNCC6)cc5)cnc34)ccnc2c1 [LDN193189]
inhibition of growth at 5 µM [1, 52]: 21.7%

CNC(=O)CN1CCC(Oc2cc3c(Nc4cccc(Cl)c4F)ncnc3cc2OC)CC1 [AZD8931]
IC50 [17]: 3 nM
inhibition of growth at 5 µM [1, 51]: -20%
IC50 [18]: 4 nM

CC1=NN(c2ccc(C)c(C)c2)C(=O)/C1=N/Nc1cccc(-c2cccc(C(=O)O)c2)c1O [Eltrombopag (SB-497115-GR)]
IC50 [19]: 690 nM
inhibition of growth at 5 µM [1, 52]: 0.7%

CC[C@@H]1C(=O)N(C)c2cnc(Nc3ccc(C(=O)N[C@H]4CC[C@H](N5CCN(CC6CC6)CC5)CC4)cc3OC)nc2N1C(C)C [BI6727 (Volasertib)]
inhibition of growth at 5 µM [1, 52]: 0.8%
IC50 [20]: 0.87 nM

Nc1cc(C(F)(F)F)c(-c2cc(N3CCOCC3)nc(N3CCOCC3)n2)cn1 [BKM120 (NVP-BKM120)]
inhibition of growth at 5 µM [1, 52]: 41.3%

COc1cc[nH]c2ncc(C(=O)C(=O)N3CCN(C(=O)c4ccccc4)C[C@H]3C)c1-2 [BMS-806 (BMS 378806)]
inhibition of growth at 5 µM [1, 52]: 0.3%
EC50 [22]: 0.85 to 26.5 nM

C[C@@H]1CC[C@@]2(OC1)O[C@H]1C[C@H]3[C@@H]4CC=C5C[C@H](O[C@@H]6O[C@@H](CO)[C@@H](O[C@@H]7O[C@@H](C)[C@H](O)[C@@H](O)[C@@H]7O)[C@H](O)[C@H]6O[C@@H]6O[C@@H](C)[C@H](O)[C@@H](O)[C@H]6O)CC[C@]5(C)[C@@H]4CC[C@]3(C)[C@@H]1[C@H]2C [Dioscin (Collettiside III)]
IC50 [23]: 7500 nM
inhibition of growth at 5 µM [1, 52]: 4.8%
IC50 [24]: 4500 nM
IC50 [25]: 2600 nM
IC50 [26]: 800 nM

COc1cccc(Nc2c(C(N)=O)cnc3c(C)cc(S(=O)(=O)c4cccc(C(=O)N(C)C)c4)cc23)c1 [GSK256066]
inhibition of growth at 5 µM [1, 52]: 18.7%
IC50 [27]: 0.0032 nM

CCN1CCN(c2ccc(Nc3cc(N(C)C(=O)Nc4c(Cl)c(OC)cc(OC)c4Cl)ncn3)cc2)CC1 [BGJ398 (NVP-BGJ398)]
IC50 [28]: 0.9 nM
inhibition of growth at 5 µM [1, 51]: -8.9%
IC50 [29]: 1 nM

COc1ccc(COc2cc3oc(=O)c4cc(C(C)O)ccc4c3cc2OC)cc1 (stereo not shown) [Palomid 529]
inhibition of growth at 5 µM [1, 52]: -14.6%
IC50 [30]: 30 nM
IC50 [31]: 10 nM

Cc1ccc(C(=O)Nc2cccc(C(F)(F)F)c2)cc1Nc1nc(-c2cccnc2)nc2c1cnn2C [NVP-BHG712]
IC50 [32]: 395 nM
ED50, EphB4 [33]: 25 nM
IC50 [34]: 1270 nM
inhibition of growth at 5 µM [1, 51]: -3.3%
IC50 [35]: 1670 nM
ED50, VEGFR2 [36]: 4200 nM

Cc1ccccc1C(=O)Nc1ccc(C(=O)N2CCCC(O)c3cc(Cl)ccc32)c(C)c1 (stereo not shown) [Tolvaptan (OPC-41061)]
IC50 [37]: 1280 nM
inhibition of growth at 5 µM [1, 52]: -4.3%

Cc1cccc(-c2[nH]c(C(C)(C)C)nc2-c2ccc3c(c2)OCO3)n1 [SB-505124]
inhibition of growth at 5 µM [1, 51]: -14.8%
IC50 [38]: 129 nM
IC50 [39]: 47 nM

CNC(=O)c1cc(COc2nnc(Nc3ccc(Cl)cc3)c3ccoc23)ccn1 [Telatinib (BAY 57-9352)]
IC50 [40]: 1 nM
inhibition of growth at 5 µM [1, 52]: -15.6%
IC50 [41]: 15 nM
IC50 [42]: 6 nM
IC50 [43]: 4 nM

COc1cccc2cc(-c3nc([C@H]4CC[C@H](C(=O)O)CC4)n4ncnc(N)c34)[nH]c12 [OSI-027]
IC50 [44]: 65 nM
inhibition of growth at 5 µM [1, 52]: 31%
IC50 [45]: 22 nM

CCC[C@H](NC(=O)/C(C#N)=C/c1cccc(Br)n1)c1ccccc1 [WP1130]
IC50 [46]: 1800 nM
inhibition of growth at 5 µM [1, 52]: 1.7%

NC1(Cc2ccc(Cl)cc2)CCN(c2ncnc3[nH]ccc23)CC1 [CCT128930]
inhibition of growth at 5 µM [1, 52]: -25.6%

COc1cc(Nc2ncc(F)c(Nc3ccc4c(n3)N(COP(=O)(O)O)C(=O)C(C)(C)O4)n2)cc(OC)c1OC [R788 (Fostamatinib)]
inhibition of growth at 5 µM [1, 52]: 27.4%

COc1cc(OC)c(NC(=O)Nc2cc(C)on2)cc1Cl [PNU-120596]
inhibition of growth at 5 µM [1, 52]: -38.8%
EC50 [49]: 216 nM

NC(=O)c1cccc(-c2cccc(OC(=O)NC3CCCCC3)c2)c1 [URB597]
inhibition of growth at 5 µM [1, 52]: 2.1%
IC50 [50]: 4.6 nM
